Experimental data: ChEMBL document CHEMBL1201862, “PubChem BioAssay data set” (2004)
Active and inactive are the calls of the source.

Columns and labels:
Bcl-2-like protein 10 = Bcl-2-like protein 10 (Homo sapiens, UniProt Q9HD36); experiment: Biochemical TR3 FP assay of Bcl-B inhibitor potency, EC50 (AID 1243); assay type: functional
[1] = molecular target: Lysosomal acid glucosylceramidase (Homo sapiens, UniProt P04062); experiment: Dose response cell-based high throughput screening assay to identify enhancers of beta-glucosidase activity. [Related pubchem assays: 784 ]; assay type: functional
Chain of Lysosomal acid glucosylceramidase (P04062 whole entry): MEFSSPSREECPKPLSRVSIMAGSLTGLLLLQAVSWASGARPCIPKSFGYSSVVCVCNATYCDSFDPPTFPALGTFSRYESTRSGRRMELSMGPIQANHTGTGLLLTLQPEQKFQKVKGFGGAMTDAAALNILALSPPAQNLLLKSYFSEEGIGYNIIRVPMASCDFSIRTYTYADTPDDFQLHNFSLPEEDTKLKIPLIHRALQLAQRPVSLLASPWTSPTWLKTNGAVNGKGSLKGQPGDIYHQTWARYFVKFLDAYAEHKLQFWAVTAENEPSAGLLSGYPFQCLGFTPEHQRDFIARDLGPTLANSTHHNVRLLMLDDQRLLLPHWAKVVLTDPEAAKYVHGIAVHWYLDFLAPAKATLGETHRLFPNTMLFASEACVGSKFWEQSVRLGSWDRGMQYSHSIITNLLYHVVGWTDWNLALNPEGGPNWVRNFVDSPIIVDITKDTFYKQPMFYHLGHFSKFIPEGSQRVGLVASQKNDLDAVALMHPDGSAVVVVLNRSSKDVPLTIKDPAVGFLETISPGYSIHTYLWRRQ

[2] = Counterscreen for IDE inhibitors: Luminescence-based cell-based high throughput dose response assay to identify compounds that are cytotoxic to HEK cells. [Related pubchem assays: 434962 (Primary screen (IDE inhibitors in singlicate)), 449730 (Counterscreen (Cytotoxicity in triplicate)), 435028 (Confirmation (IDE inhibitors in triplicate)) …; assay type: functional; settings: HEK293
Insulin-degrading enzyme = molecular target: T1, Insulin-degrading enzyme (Homo sapiens, UniProt P14735); experiment: Dose Response: Fluorescence polarization-based cell-based high throughput dose response assay for inhibitors of insulin-degrading enzyme (IDE). [Related pubchem assays: 434962 (Primary screen (IDE inhibitors in singlicate)), 449730 (Counterscreen (Cytotoxicity in triplicate)), 435028 (Confirmation (IDE inhibitors in triplicate)), 434984 (Summary …; assay type: functional
T1 sequence (P14735 whole entry): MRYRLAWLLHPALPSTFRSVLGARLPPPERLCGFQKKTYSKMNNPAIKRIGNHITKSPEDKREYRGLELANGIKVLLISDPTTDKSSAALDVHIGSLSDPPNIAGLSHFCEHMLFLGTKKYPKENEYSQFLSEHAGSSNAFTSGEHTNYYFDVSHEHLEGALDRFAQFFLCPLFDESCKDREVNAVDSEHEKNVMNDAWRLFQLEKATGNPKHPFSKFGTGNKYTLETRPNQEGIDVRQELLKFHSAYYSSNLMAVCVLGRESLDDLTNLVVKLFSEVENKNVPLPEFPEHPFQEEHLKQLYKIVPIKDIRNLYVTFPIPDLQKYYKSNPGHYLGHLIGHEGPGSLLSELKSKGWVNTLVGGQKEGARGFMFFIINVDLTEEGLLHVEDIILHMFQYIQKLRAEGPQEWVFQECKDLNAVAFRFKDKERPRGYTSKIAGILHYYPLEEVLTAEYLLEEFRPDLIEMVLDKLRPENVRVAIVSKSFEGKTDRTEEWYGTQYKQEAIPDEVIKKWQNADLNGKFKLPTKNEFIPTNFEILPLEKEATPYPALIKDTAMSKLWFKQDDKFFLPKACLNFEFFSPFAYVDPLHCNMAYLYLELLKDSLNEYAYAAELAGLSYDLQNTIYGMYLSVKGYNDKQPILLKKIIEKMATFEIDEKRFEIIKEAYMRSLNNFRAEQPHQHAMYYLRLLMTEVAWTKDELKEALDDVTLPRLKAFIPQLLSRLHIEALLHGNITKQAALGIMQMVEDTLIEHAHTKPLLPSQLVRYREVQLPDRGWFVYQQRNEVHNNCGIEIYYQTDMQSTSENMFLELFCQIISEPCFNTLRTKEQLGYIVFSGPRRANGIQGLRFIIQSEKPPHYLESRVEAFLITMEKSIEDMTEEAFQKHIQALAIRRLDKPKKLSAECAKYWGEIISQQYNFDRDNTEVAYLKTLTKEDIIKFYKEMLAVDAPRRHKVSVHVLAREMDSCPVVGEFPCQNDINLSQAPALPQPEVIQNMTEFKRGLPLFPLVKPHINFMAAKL

[3] = enhancers of respiration in Yfh1-depleted yeast, dose response, Friedreich's ataxia, plus single-dose screen (AID 1465); assay type: functional;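 also: yeast depleted of Yfh1p frataxin homolog grown on glycerol needing respiration; WST-1 tetrazolium dye reduction as measure of cellular dehydrogenase metabolic activity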
Troponin, cardiac muscle = Troponin, cardiac muscle (Homo sapiens, UniProt P19429+P45379+P63316); experiment: Fluorescence-based biochemical high throughput dose response assay for activators of the calcium sensitivity of cardiac Regulated Thin Filaments (RTF). [Related pubchem assays (depositor defined):AID493008, AID493018, AID504382, AID504383]; assay type: protein-complex assay
[4] = test system: Streptococcus sp. 'group A'; experiment: growth inhibition of control SK(-) GAS strain, dose response, counter-screen for streptokinase expression inhibitor project, luminescence, kanamycin, BacTiterGlo, confirmation (AID 1900); assay type: functional, organism-based
Streptokinase A = molecular target: T2, Streptokinase A (Streptococcus pyogenes serotype M1, UniProt P10520); experiment: S. pyogenes streptokinase expression inhibitors, potency, dose response, plasminogen activation absorbance, OD405 (AID 1914); assay type: functional, Streptococcus pyogenes M1 GAS;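 also: secreted streptokinase activity via plasminogen activation per viability signal from cell pellet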
T2 sequence (P10520 whole entry): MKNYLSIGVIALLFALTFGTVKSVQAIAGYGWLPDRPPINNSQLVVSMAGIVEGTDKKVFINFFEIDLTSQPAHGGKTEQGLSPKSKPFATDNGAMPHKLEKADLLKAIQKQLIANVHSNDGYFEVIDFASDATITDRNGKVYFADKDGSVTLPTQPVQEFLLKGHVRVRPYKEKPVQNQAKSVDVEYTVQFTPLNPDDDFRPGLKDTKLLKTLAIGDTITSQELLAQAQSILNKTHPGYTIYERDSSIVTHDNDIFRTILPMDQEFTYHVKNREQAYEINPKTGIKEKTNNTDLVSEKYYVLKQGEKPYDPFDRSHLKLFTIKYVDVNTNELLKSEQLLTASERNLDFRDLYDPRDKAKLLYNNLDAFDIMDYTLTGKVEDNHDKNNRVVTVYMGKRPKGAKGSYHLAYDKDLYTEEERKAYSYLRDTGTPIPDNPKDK

[5] = inhibitors of Bluetongue virus cytopathic effect, confirmation, arbovirus, BSR cells (AID 1250); assay type: functional;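 also: protection from viral cytopathic effect measured as cell viability by ATP luminescence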
Streptococcus = experiment: Group A Streptococcus viability loss, dose response, counter-screen for streptokinase expression inhibitor project, luminescence, BacTiterGlo (AID 1915); assay type: functional, organism-based;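 also: potency for reduction of bacterial viability or growth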
fMet-Leu-Phe receptor = molecular target: T3, fMet-Leu-Phe receptor (Homo sapiens, UniProt P21462); experiment: FPR ligands, dose response (AID 519); assay type: functional
T3 sequence (P21462 whole entry): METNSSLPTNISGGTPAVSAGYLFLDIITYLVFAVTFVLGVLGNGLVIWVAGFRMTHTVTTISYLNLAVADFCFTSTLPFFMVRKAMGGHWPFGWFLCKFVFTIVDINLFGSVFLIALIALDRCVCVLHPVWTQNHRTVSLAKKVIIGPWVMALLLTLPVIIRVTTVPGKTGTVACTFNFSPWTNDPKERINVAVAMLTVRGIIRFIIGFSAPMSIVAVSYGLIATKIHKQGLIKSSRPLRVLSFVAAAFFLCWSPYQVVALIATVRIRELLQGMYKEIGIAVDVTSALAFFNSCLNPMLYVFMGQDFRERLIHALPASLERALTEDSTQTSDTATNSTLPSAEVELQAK

Chain of Bcl-2-like protein 10 (Q9HD36 whole entry): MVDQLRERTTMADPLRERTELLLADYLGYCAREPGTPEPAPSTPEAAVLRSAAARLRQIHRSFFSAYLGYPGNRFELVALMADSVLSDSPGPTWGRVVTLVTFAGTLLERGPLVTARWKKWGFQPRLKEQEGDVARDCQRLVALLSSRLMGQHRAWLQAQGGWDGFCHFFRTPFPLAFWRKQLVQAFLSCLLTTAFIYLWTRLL

O=C(O)Cc1c[nH]c2ccc(O)cc12
EC50 (Bcl-2-like protein 10): 7.88 µM (active)

COc1ccc(CNC(=O)CCCNS(=O)(=O)c2cccc3nonc23)cc1
EC50 [1]: > 50 µM (not active)

CCOC(=O)/C(=C/C1=CC(=C/N(C)C)/C(=O)O1)C(C)=O
IC50 [2]: > 55.7 µM (not active)
IC50 (Insulin-degrading enzyme): 22.1 µM (not active)
EC50 [3]: > 100 µM (active)
EC50 (Troponin, cardiac muscle): 7.74 µM (active)

CCOC(=O)c1sc(=S)n2c1[nH]c(=O)c1ccc(C(=O)OC)cc12
EC50 [4]: 6.34 µM (active)
EC50 (Streptokinase A): > 150 µM (not active)
IC50 [5]: 53 µM (active)
EC50 (Streptococcus): 11.5 µM (active)
Ki (fMet-Leu-Phe receptor): > 66.7 µM (inactive)
